Data set [1] concerns human HepG2 hepatoblastoma cells. Kind of data set: Growth inhibition, crystal violet staining, HepG2. The format is cell-based. Particulars: 48 h incubation, mean ± SD, read-out: Anti-proliferative activity IC50, HepG2. As to the method: (§1) The well-differentiated p53 wild-type human hepatoblastoma cell line HepG2 (ATCC# 8065) and the highly differentiated p53 mutated human hepatocellular carcinoma cell line Huh-7 (JCRB#0403) were grown in RPMI 1640 medium supplemented with 10% fetal bovine serum and 100 U/mL penicillin and […] streptomycin. Murine AML-12 hepatocytes were obtained from ATCC (CRL-2254) and grown in DMEM/F-12 Glutamax medium supplemented with 10% fetal bovine serum, 10 µg/mL insulin, 5.5 µg/mL transferrin, 5 ng/mL selenium (Gibco ITS-G 100X) and 40 ng/mL dexamethasone (Sigma-Aldrich). All cell lines were incubated in a 37 °C, 5% CO2, 95% humidified atmosphere.
(§2) Treatment-induced changes in cell number were evaluated by crystal violet staining, as previously described. Briefly, 1.500 cells per well were seeded in 96-well plates for 24 h at 37 °C, 5% CO2. For the experiments with HepG2 and Huh-7 cell lines, cells were incubated with rising concentrations (0–20 µM) of the new compounds (1a–1o) for 48 h. AML12-cells were treated with compounds 1a, 1b, 1c, 1e, 1i and 1j for 48 h and at concentrations ranging from 0.5–64 µM. Thereafter, the cells were fixed with 1% glutaraldehyde and stained with 0.1% crystal violet (Sigma-Aldrich). The unbound dye was removed by rinsing with water. Bound crystal violet was solubilized with 0.2% Triton X-100 (Sigma-Aldrich). Light extinction of crystal violet, which increases linearly with cell number, was analyzed at 570 nm using an ELISA-Reader (Dynex Technologies, Denkendorf, Germany). All experiments were carried out in duplicate or triplicate.

A further data set relates to human Huh-7 HCC cells. Kind of data set: Growth inhibition, crystal violet staining, Huh-7. As to conditions: 48 h incubation, mean ± SD, read-out: Anti-proliferative activity IC50, Huh-7. In kind it is cell-based. As to the method:
as §1, §2

Data set [2] deals with non-malignant murine AML-12 hepatocytes. Kind of data set: Growth inhibition, crystal violet staining, AML-12. As to conditions: for IC50 against AML-12 hepatocytes relative to hepatoma cells: AML-12 vs hepatoma cells (HepG2, Huh-7), 48 h; for IC50: Mus musculus, AML12, 48 h incubation, mean ± SD, read-out: Anti-proliferative activity IC50, AML-12. The format is cell-based. The protocol: as §1, §2

For data set [3], the system named is HepG2 cells. Kind of data set: Colony-formation assay. In kind it is cell-based, human. Particulars: 1, 5, 10 µM, 14 days. As to the method: HepG2 cells were seeded in 6-well plates at a density of 300 cells/well and allowed to attach overnight. […] Then, the plates were washed twice with PBS, fixed with 4% formaldehyde for 1 h, and stained with 0.5% crystal violet for 3 min. Excessive crystal violet was washed out and the colonies were counted under the microscope. A colony was defined as a cell aggregate with 50 or more cells. Representative images were taken with a kappa digital camera system (Kappa Optronics GmbH, Germany). A total of n = 3 experiments were performed, and significance was tested by one-way ANOVA assays.

In data set [4] the test system is HepG2 cells. Briefly: LDH release assay (unspecific cytotoxicity). In kind it is cell-based, human. As to conditions: HepG2, 0.5 and 10 µM, 12 or 24 h. The protocol:
Unspecific cytotoxicity induced by treatment with 0.5 µM and 10 µM of 1a, 1b, 1c and sorafenib (LC Laboratories, Woburn, MA, USA) was determined by measuring the release of lactate dehydrogenase (LDH) from HepG2 cells into the supernatant after 12 and 24 h (Cytotoxicity Detection KitPLUS LDH, Roche Diagnostics GmbH, Mannheim, Germany). The supernatant of treated samples was collected, and adherent non-treated cells were lysed with 2% Triton X-100 for 10 min to determine the maximum LDH release. All samples were mixed with catalyst and dye solution for 30 min, resulting in the formation of formazan dye proportional to LDH enzyme activity. The absorbance was measured at 490/630 nm using an ELISA reader (Dynex Technologies, Denkendorf, Germany) and cytotoxicity was determined by subtracting the percentage of LDH release under control conditions of those from treated samples. Experiments were performed in duplicate and data are given as mean percentage changes ± SD as compared to controls of n = 3 experiments.
(LDH in the medium is a marker of cell lysis.)

Data set [5] concerns caspase-3 activity of HepG2 cells. Briefly: Apoptosis-specific caspase-3 activity. In kind it is cell-based, human. As to conditions: 24 h; for caspase-3 activity (in words): HepG2, 1 and 10 µM. The protocol: Changes in caspase-3 activity were measured by the cleavage of the fluorogenic substrate AC-DEVD-AMC (EMD Millipore, Billerica, MA, USA), as described previously. After 24 h of incubation with 1a, 1b, 1c, 1e and sorafenib (1 and 10 µM) the cells were harvested and lysed with lysis buffer. Subsequently, the lysates were incubated for 1 h at 37 °C with a substrate solution containing 20 μg/mL AC-DEVD-AMC, 20 mM HEPES, 10% glycerol and 2 mM DTT at pH 7.5. Substrate cleavage was measured fluorometrically using a Varioskan Flash Fluorometer (Thermo Fisher Scientific, Waltham, MA, USA; filter sets: ex 360/40 nm, em 460/10 nm). n = 3 independent measurements were performed in triplicate, and data are given as the mean percentage increase ± SD above control, which was set 100%.

In another data set the target is T1, CLK1 (Homo sapiens, UniProt P49759).
T1 construct: purchased Eurofins KinaseProfiler service (Eurofins, France)
Kind of data set: Enzymatic kinase assay (Eurofins KinaseProfiler). In kind it is biochemical. Particulars: 10 µM compound, cell-free. The protocol: (§3) The kinase inhibiting potency of compound 1a, 1b and 1c (10 µM) was screened in a cell-free kinase assay, which consisted of a custom panel of 43 human protein kinases for 1c (listed in Figure 5A), as well as a subpanel of six kinases for 1a and 1b (Figure 5B). The initial panel was chosen to screen the lead compound 1c based on the union of two strategies. A total of 29 kinases were selected based on the correlated results of three in silico target prediction methods including structure- as well as ligand-based techniques and 20 kinases because of their relevance for HCC (note that six kinases were part of both strategies).
(§4) The assay was performed by Eurofins KinaseProfilerTM service (Eurofins, France) and the determination of enzymatic activity was assessed as previously described. Additionally, an IC50 determination of compound 1c against the VEGFR-2 was performed with a concentration range of 0.003 to 30 µM.

In the next data set the target is T2, VEGFR-2 (KDR) (Homo sapiens, UniProt P35968).
T2 construct: purchased Eurofins KinaseProfiler service (Eurofins, France)
Kind of data set: Enzymatic kinase assay (Eurofins KinaseProfiler). The format is biochemical. Particulars: 10 µM compound, cell-free. The protocol:
as §3, §4

Data set [6] deals with HepG2-tumors grown on membranes of fertilized chicken eggs. Briefly: Chorioallantoic membrane (CAM) assay. In kind it is in vivo. As to the method: The chorioallantoic membrane (CAM) assay was performed as described previously. Fertilized chicken eggs (Gallus gallus) were obtained from commercial sources (Valo GmbH, Germany) and incubated in a humid environment at 38 °C. On day 3 of the egg development, a window was cut in the eggshell to access the developing vascular network of the CAM. At day 10 of chicken embryo development, a sterile silicon ring (10 mm diameter) was placed on the CAM and tumor plugs of 3 × 10^6 HepG2 cells in 20 µL Matrigel (BD Biosciences) with reduced growth factors were placed inside the silicon ring. After 24 h at 38 °C in an incubator, the tumor plaques attached and connected to the (tumor-)feeding CAM microvasculature. Then, the tumor plaques were topically treated with either PBS (negative control) or PBS containing rising concentrations of 1b (0–10 µM), 1c (0–2.5 µM) or sorafenib (10 μM) for 3 days. Tumor growth and viability of the embryo were controlled daily by stereo microscopy. After 72 h of treatment, the tumors were recovered for weighing and pictures were taken using a stereomicroscope equipped with a Kappa digital camera system (Kappa Optronics GmbH, Germany). For data analysis, the tumor weight of 1c-treated and untreated control tumors was determined and the mean weight of treated vs. untreated tumors of 11 eggs for each condition was calculated. Statistical significance evaluated by one-way ANOVA tests.

T2 sequence (P35968 20-1356): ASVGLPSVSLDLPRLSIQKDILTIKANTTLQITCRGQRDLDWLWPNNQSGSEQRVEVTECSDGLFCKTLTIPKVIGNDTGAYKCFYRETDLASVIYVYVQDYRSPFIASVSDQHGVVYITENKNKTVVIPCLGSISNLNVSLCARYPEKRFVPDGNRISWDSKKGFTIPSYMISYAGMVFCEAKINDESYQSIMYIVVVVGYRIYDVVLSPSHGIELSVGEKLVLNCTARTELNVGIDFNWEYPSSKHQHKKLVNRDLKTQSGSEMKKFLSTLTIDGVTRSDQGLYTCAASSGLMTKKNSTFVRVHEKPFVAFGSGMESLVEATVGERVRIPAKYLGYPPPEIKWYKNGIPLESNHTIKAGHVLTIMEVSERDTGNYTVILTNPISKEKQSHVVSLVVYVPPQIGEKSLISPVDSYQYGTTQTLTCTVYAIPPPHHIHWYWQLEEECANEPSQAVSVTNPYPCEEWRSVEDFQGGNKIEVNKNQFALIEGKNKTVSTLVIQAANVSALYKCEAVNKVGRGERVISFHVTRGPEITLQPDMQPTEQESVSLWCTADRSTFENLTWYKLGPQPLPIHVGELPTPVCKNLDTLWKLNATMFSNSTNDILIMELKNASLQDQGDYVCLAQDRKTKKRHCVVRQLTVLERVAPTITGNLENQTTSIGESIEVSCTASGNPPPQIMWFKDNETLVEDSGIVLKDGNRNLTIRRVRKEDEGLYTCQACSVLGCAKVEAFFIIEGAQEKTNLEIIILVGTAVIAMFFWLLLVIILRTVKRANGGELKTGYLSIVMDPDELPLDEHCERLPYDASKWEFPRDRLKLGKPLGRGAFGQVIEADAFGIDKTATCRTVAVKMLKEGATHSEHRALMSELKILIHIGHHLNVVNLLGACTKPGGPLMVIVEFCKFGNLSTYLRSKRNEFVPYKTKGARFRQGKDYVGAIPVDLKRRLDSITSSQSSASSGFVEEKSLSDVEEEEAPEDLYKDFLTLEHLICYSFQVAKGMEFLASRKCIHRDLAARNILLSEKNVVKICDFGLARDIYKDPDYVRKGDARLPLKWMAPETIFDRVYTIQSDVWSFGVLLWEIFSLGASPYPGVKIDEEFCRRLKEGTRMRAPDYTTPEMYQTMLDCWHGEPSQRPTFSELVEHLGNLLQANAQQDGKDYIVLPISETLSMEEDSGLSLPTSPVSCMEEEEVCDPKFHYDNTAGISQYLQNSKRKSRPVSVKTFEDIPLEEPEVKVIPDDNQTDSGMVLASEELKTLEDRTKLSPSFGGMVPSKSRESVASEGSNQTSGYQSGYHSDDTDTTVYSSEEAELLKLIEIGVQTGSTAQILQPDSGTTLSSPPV
T1 sequence (P49759 whole entry): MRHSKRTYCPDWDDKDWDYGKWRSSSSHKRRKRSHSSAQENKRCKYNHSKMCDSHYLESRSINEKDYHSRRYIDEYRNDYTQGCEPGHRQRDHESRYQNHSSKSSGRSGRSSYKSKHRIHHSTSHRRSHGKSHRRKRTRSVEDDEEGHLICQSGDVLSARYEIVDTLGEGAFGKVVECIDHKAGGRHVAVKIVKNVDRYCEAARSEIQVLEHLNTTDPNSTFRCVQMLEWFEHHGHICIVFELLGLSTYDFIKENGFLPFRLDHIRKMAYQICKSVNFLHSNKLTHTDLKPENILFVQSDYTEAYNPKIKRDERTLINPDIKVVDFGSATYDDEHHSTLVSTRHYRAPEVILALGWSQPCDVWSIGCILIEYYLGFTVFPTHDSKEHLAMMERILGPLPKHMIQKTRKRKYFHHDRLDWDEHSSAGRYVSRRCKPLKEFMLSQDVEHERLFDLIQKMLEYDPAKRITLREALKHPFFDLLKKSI

For `COc1ccc(C=C(C#N)c2cccs2)cc1` [Compound 1a], the results for the IC50 (in data set [1]; with human Huh-7 HCC cells; in [2]) were 1.46 ± 0.21 µM, 1.2 ± 0.42 µM and 6.79 ± 0.32 µM, respectively. In addition, in data set [2], the “IC50 against AML-12 hepatocytes relative to hepatoma cells” value is recorded as “up to 10 fold”. Besides, in the data set on HepG2 cells [3], the “effect on HepG2 colony formation (in words)” value (“effect” below) is on record as “significantly inhibited HepG2 colony formation”. The “LDH release / unspecific cytotoxicity (in words)” value in the data set on HepG2 cells [4] is reported as “do not exert considerable unspecific cytotoxicity”. Moreover, the “caspase-3 activity (in words)” value in data set [5] was “dose-dependently induced caspase-3 activity”. On CLK1, this compound gave an inhibition at 10 µM of 68%. Moreover, on VEGFR-2 (KDR), the “inhibition of VEGFR-2 (KDR)” value is reported as “lacks any activity”.
For the compound `CN(C)c1ccc(C=C(C#N)c2cccs2)cc1` [Compound 1b], the IC50 in data set [1] stood at 0.72 ± 0.09 µM; in the data set with human Huh-7 HCC cells, 0.67 ± 0.13 µM; in data set [2], 2.72 ± 0.78 µM. Also, the “IC50 against AML-12 hepatocytes relative to hepatoma cells” value in data set [2] is “up to 10 fold”. Further, the “effect” value in the data set with HepG2 cells [3] is listed as “significantly inhibited HepG2 colony formation”. Moreover, the “tumor reduction vs PBS-treated controls (in words)” value in [6] (topical treatment 72 h, 1b 0–10 µM, 1c 0–2.5 µM, sorafenib 10 µM) is “pronounced tumor reductions”. For the same compound, in data set [6] (treated vs untreated eggs), the “tolerability, mortality and development of chicken embryos” value was “well tolerated”. The “LDH release / unspecific cytotoxicity (in words)” value in the data set on HepG2 cells [4] was “do not exert considerable unspecific cytotoxicity”. In addition, the “caspase-3 activity compared with the other compounds (in words)” value in data set [5] (HepG2, 10 µM) was “comparably stronger increase in caspase-3 activity than the other compounds”. Besides, the “caspase-3 activity (in words)” value in data set [5] is listed as “dose-dependently induced caspase-3 activity”. The compound further registered an inhibition at 10 µM on VEGFR-2 (KDR) of 86%.
Consider `COc1cc(/C=C(\C#N)c2cccs2)ccc1O` [Compound 1d], for which the IC50 (in data set [1]; with human Huh-7 HCC cells) was more than 20 µM in each case.
With `COc1ccc(C=C(C#N)c2cccs2)cc1C` [Compound 1e, 2-[1-Cyano-2-(3-methyl-4-methoxyphenyl)-(E)-ethenyl)]-thiophene], the IC50 in data set [1] was 1.3 ± 0.17 µM; in the data set with human Huh-7 HCC cells, 1.85 ± 0.21 µM; in [2] it was 14.8 ± 2.39 µM. In addition, the “IC50 against AML-12 hepatocytes relative to hepatoma cells” value in data set [2] is listed as “up to 10 fold”. In addition, the “effect” value in the data set on HepG2 cells [3] is on record as “significantly inhibited HepG2 colony formation”. Also, the “caspase-3 activity (in words)” value in data set [5] is given as “dose-dependently induced caspase-3 activity”.
For `COc1cc(/C=C(\C#N)c2cccs2)ccc1-c1ccccc1Cl` [Compound 1f], the IC50 (in data set [1]; in the data set on human Huh-7 HCC cells) was more than 20 µM each time.
With `COCCOc1cc(/C=C(\C#N)c2cccs2)ccc1OC` [Compound 1g, 2-[1-Cyano-2-[4-Methoxy-3-(2-methoxyethoxy)phenyl]-(E)-ethenyl}-thiophene], the IC50 (in data set [1]; in the data set with human Huh-7 HCC cells) was more than 20 µM in each case.
For `COCCOc1ccc(/C=C(\C#N)c2cccs2)cc1OCCOC` [Compound 1h, 2-{1-Cyano-2-[3,4-bis(2-methoxyethoxy)phenyl]-(E)-ethenyl}-thiophene], the IC50 (in [1]; in the data set with human Huh-7 HCC cells) was more than 20 µM each time.
With `CN1CCN(c2ccc(/C=C(\C#N)c3cccs3)cc2)CC1` [Compound 1i, 2-[1-Cyano-2-(4-N-methylpiperazin-1-ylphenyl)-(E)-ethenyl]-thiophene], the results for the IC50 (in data set [1]; in the data set with human Huh-7 HCC cells; in data set [2]) were 9.3 ± 0.82 µM, 11.8 ± 0.56 µM and 20.5 ± 1.25 µM, respectively.
For `COc1ccc(/C=C(\C#N)c2cccs2)cc1F` [Compound 1j, 2-[1-Cyano-2-(3-fluoro-4-methoxyphenyl)-(E)-ethenyl]-thiophene] the same measures were 4.9 ± 1.54 µM, 5.7 ± 1.2 µM and 9.42 ± 0.91 µM.
Take `COCCOc1ccc(/C=C(\C#N)c2cccs2)cc1F` [Compound 1k, 2-{1-Cyano-2-[3-fluoro-4-(2-methoxyethoxy)phenyl]-(E)-ethenyl}-thiophene]: the IC50 (in data set [1]; in the data set with human Huh-7 HCC cells) was more than 20 µM in each case.
As to `COc1ccc(/C=C(\C#N)c2cccs2)cc1Br` [Compound 1l, 2-[1-Cyano-2-(3-bromo-4-methoxyphenyl)-(E)-ethenyl]-thiophene], the IC50 in data set [1] amounted to 13.9 ± 1.16 µM.
As for `N#C/C(=C\c1cccc(O)c1)c1cccs1` [Compound 1m, 2-[1-Cyano-2-(3-hydroxyphenyl)-(E)-ethenyl]-thiophene], the IC50 (in [1]; with human Huh-7 HCC cells) was more than 20 µM each time.
For `COc1ccc(/C=C(\C#N)c2cccs2)cc1OCCCN1CCOCC1` [Compound 1n, 2-{1-Cyano-2-[4-methoxy-3-(3-morpholinopropoxy)phenyl]-(E)-ethenyl}-thiophene], the IC50 (in [1]; in the data set with human Huh-7 HCC cells) was more than 20 µM each time.
Regarding `Cn1ccc2cc(/C=C(\C#N)c3cccs3)ccc21` [Compound 1o, 2-{1-Cyano-2-[N-methylindol-5-yl]-(E)-ethenyl}-thiophene], the IC50 (in [1]; in the data set with human Huh-7 HCC cells) was more than 20 µM in each case.
With `COc1ccc(C=C(C#N)c2cccnc2)cc1O` [Compound 2, reference compound], the IC50 in data set [1] turned out to be 6.26 ± 1.18 µM.

Usually IC50 stands for the concentration needed to halve the response being measured. As a reminder, the inhibition is the change of the read-out against control, counted positive when it falls. Read a high inhibition as a response far below the control.

The values are drawn from paper PMC7956560, “New 3-Aryl-2-(2-thienyl)acrylonitriles with High Activity Against Hepatoma Cells” (International Journal of Molecular Sciences, 2021).
